Assay results published in PubChem BioAssay (NCI).
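Protocol summary: plate cells (96-well), add compound at 5 concentrations, incubate 48 h, interpolate endpoints linearly. At the GI50, growth is halved. The concentration for full growth arrest is given as TGI.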

Legend:
Experiment in all cases: NCI tumour cell line growth inhibition, 48 h
[1] = test system: 786-0 renal
[2] = test system: A498 renal
[3] = test system: A549 NSCLC
[4] = test system: ACHN renal
[5] = test system: BT-549 breast
[6] = test system: CAKI-1 renal
[7] = test system: CCRF-CEM leukemia
[8] = test system: COLO 205 colon
[9] = test system: DU-145 prostate
[10] = test system: EKVX NSCLC
[11] = test system: HCC-2998 colon
[12] = test system: HCT-116 colon
[13] = test system: HCT-15 colon
[14] = test system: HL-60(TB) leukemia
[15] = test system: HOP-62 NSCLC
[16] = test system: HOP-92 NSCLC
[17] = test system: HS 578T breast
[18] = test system: HT29 colon
[19] = test system: IGROV1 ovarian
[20] = test system: K-562 leukemia
[21] = test system: KM12 colon
[22] = test system: LOX IMVI melanoma
[23] = test system: M14 melanoma
[24] = test system: MALME-3M melanoma
[25] = test system: MCF7 breast
[26] = test system: MDA-MB-231 breast
[27] = test system: MDA-MB-435
[28] = test system: MDA-MB-468 breast
[29] = test system: MOLT-4 leukemia
[30] = test system: NCI-H226 lung
[31] = test system: NCI-H23 lung
[32] = test system: NCI-H460 lung
[33] = test system: NCI-H522 lung
[34] = test system: NCI/ADR-RES ovarian
[35] = test system: OVCAR-3 ovarian
[36] = test system: OVCAR-4 ovarian
[37] = test system: OVCAR-5 ovarian
[38] = test system: OVCAR-8 ovarian
[39] = test system: PC-3 prostate
[40] = test system: RPMI-8226 leukemia
[41] = test system: RXF 393 renal
[42] = test system: SF-268 CNS
[43] = test system: SF-295 CNS
[44] = test system: SF-539 CNS
[45] = test system: SK-MEL-2 melanoma
[46] = test system: SK-MEL-28 melanoma
[47] = test system: SK-MEL-5 melanoma
[48] = test system: SK-OV-3 ovarian
[49] = test system: SN12C renal
[50] = test system: SNB-19 CNS
[51] = test system: SNB-75 CNS
[52] = test system: SR leukemia
[53] = test system: SW-620 colon
[54] = test system: T-47D breast
[55] = test system: TK-10 renal
[56] = test system: U251 CNS
[57] = test system: UACC-257 melanoma
[58] = test system: UACC-62 melanoma
[59] = test system: UO-31 renal

In the case of `O=C(c1ccccc1)c1ccc2nc(-c3ccccc3Br)[nH]c2c1`, the GI50 [1] is reported as 2.37 µM, the TGI [1] is reported as 4.77 µM and the GI50 [2] is reported as 17.3 µM. For the same compound, the TGI [2] was 33 µM, the GI50 [3] was 10.2 µM and the TGI [3] was 28.2 µM. The GI50 [4] was 2.27 µM, the TGI [4] was 5.67 µM and the GI50 [5] was 1.53 µM. It also gave a TGI [5] of 3.15 µM, a GI50 [6] of 3.24 µM and a TGI [6] of 11.3 µM. It also gave a GI50 [7] of 2.24 µM, a TGI [7] of 15.9 µM and a GI50 [8] of 2.04 µM. For the same compound, the TGI [8] was 3.94 µM, the GI50 [9] was 4.33 µM and the TGI [9] was 15.4 µM. For the same compound, the GI50 [10] was 2.11 µM, the TGI [10] was 4.92 µM and the GI50 [11] was 8.69 µM. It also gave a TGI [11] of 21.7 µM, a GI50 [12] of 2.31 µM and a TGI [12] of 8.15 µM. For the same compound, the GI50 [13] was 1.74 µM, the TGI [13] was 3.78 µM and the GI50 [14] was 2.04 µM. The TGI [14] was 6.05 µM, the GI50 [15] was 3.23 µM and the TGI [15] was 8.5 µM. The GI50 [16] was 2.08 µM, the TGI [16] was 6.48 µM and the GI50 [17] was 3.79 µM. It also gave a TGI [17] of 54 µM, a GI50 [18] of 2.27 µM and a TGI [18] of 4.63 µM. For the same compound, the GI50 [19] was 3.51 µM, the TGI [19] was 13.9 µM and the GI50 [20] was 2.77 µM. For the same compound, the TGI [20] was > 100 µM, the GI50 [21] was 4.64 µM and the TGI [21] was 18.5 µM. The GI50 [22] was 2.45 µM, the TGI [22] was 10.4 µM and the GI50 [23] was 1.77 µM. For the same compound, the TGI [23] was 4.38 µM, the GI50 [24] was 2.11 µM and the TGI [24] was 6.35 µM. For the same compound, the GI50 [25] was 2.15 µM, the TGI [25] was 7.67 µM and the GI50 [26] was 4.84 µM. For the same compound, the TGI [26] was 19.5 µM, the GI50 [27] was 3.54 µM and the TGI [27] was 13.2 µM. For the same compound, the GI50 [28] was 1.73 µM, the TGI [28] was 3.9 µM and the GI50 [29] was 2.21 µM. For the same compound, the TGI [29] was 11.5 µM, the GI50 [30] was 2.66 µM and the TGI [30] was 12.2 µM. For the same compound, the GI50 [31] was 2.08 µM, the TGI [31] was 6.5 µM and the GI50 [32] was 4.22 µM. The TGI [32] was 19.8 µM, the GI50 [33] was 1.53 µM and the TGI [33] was 3.07 µM. It also gave a GI50 [34] of 2.44 µM, a TGI [34] of 6.66 µM and a GI50 [35] of 2.94 µM. The TGI [35] was 10.4 µM, the GI50 [36] was 3.72 µM and the TGI [36] was 13.7 µM. The GI50 [37] was 2.48 µM, the TGI [37] was 5.7 µM and the GI50 [38] was 3.81 µM. For the same compound, the TGI [38] was 35.4 µM, the GI50 [39] was 2.48 µM and the TGI [39] was 10.8 µM. For the same compound, the GI50 [40] was 2.65 µM, the TGI [40] was 11.8 µM and the GI50 [41] was 1.61 µM. It also gave a TGI [41] of 3.82 µM, a GI50 [42] of 3.1 µM and a TGI [42] of 12.3 µM. For the same compound, the GI50 [43] was 5.54 µM, the TGI [43] was 18.2 µM and the GI50 [44] was 1.77 µM. For the same compound, the TGI [44] was 3.33 µM, the GI50 [45] was 2.01 µM and the TGI [45] was 4.92 µM. For the same compound, the GI50 [46] was 3.69 µM, the TGI [46] was 14.7 µM and the GI50 [47] was 1.85 µM. It also gave a TGI [47] of 3.79 µM, a GI50 [48] of 4.1 µM and a TGI [48] of 12.6 µM. For the same compound, the GI50 [49] was 2.4 µM, the TGI [49] was 6.5 µM and the GI50 [50] was 4.41 µM. It also gave a TGI [50] of 16.8 µM, a GI50 [51] of 3.23 µM and a TGI [51] of 13.4 µM. The GI50 [52] was 2.51 µM, the TGI [52] was 12.7 µM and the GI50 [53] was 3.33 µM. It also gave a TGI [53] of 13.2 µM, a GI50 [54] of 2.89 µM and a TGI [54] of 11.3 µM. It also gave a GI50 [55] of 8.18 µM, a TGI [55] of 21.3 µM and a GI50 [56] of 2 µM. It also gave a TGI [56] of 4.59 µM, a GI50 [57] of 2.59 µM and a TGI [57] of 12.7 µM. The GI50 [58] was 3.57 µM, the TGI [58] was 16.4 µM and the GI50 [59] was 4.95 µM. The TGI [59] was 17.4 µM.

`COc1ccc(CCN2C(=O)/C(=C/c3csc(C#N)n3)SC2=S)cc1OC` gave a GI50 [1] of 5.56 µM, a TGI [1] of 18.9 µM and a GI50 [2] of 18.6 µM. For the same compound, the TGI [2] was 68 µM, the GI50 [3] was 35 µM and the TGI [3] was > 100 µM. The GI50 [4] was 13.4 µM, the TGI [4] was 31.4 µM and the GI50 [5] was 11.4 µM. It also gave a TGI [5] of 24.2 µM, a GI50 [6] of 16.5 µM and a TGI [6] of 33.3 µM. It also gave a GI50 [7] of 3.38 µM, a TGI [7] of 11.4 µM and a GI50 [8] of 21.6 µM. The TGI [8] was 87.5 µM, the GI50 [9] was 2.96 µM and the TGI [9] was 10.5 µM. For the same compound, the GI50 [10] was 22.2 µM, the TGI [10] was 60 µM and the GI50 [11] was 15.3 µM. For the same compound, the TGI [11] was 29.9 µM, the GI50 [12] was 4.55 µM and the TGI [12] was 16.9 µM. It also gave a GI50 [13] of 5.3 µM, a TGI [13] of 20.9 µM and a GI50 [14] of 14.6 µM. For the same compound, the TGI [14] was 40.1 µM, the GI50 [15] was 22 µM and the TGI [15] was 69.6 µM. The GI50 [16] was 2.12 µM, the TGI [16] was 8.56 µM and the GI50 [17] was 19.8 µM. It also gave a TGI [17] of 72.9 µM, a GI50 [18] of 13.5 µM and a TGI [18] of 27.6 µM. For the same compound, the GI50 [19] was 18.2 µM, the TGI [19] was 41.7 µM and the GI50 [20] was 2.97 µM. It also gave a TGI [20] of 15.5 µM, a GI50 [21] of 3.71 µM and a TGI [21] of 15.2 µM. It also gave a GI50 [22] of 2.9 µM, a TGI [22] of 10.6 µM and a GI50 [23] of 13.8 µM. For the same compound, the TGI [23] was 49.1 µM, the GI50 [24] was 11.9 µM and the TGI [24] was 29.7 µM. For the same compound, the GI50 [25] was 3.3 µM, the TGI [25] was 15.7 µM and the GI50 [26] was 12 µM. The TGI [26] was 28.8 µM, the GI50 [27] was 13.6 µM and the TGI [27] was 29.3 µM. It also gave a GI50 [28] of 2.67 µM, a TGI [28] of 14.9 µM and a GI50 [29] of 3.94 µM. For the same compound, the TGI [29] was 25.4 µM, the GI50 [30] was 15.8 µM and the TGI [30] was 41.5 µM. The GI50 [31] was 14.6 µM, the TGI [31] was 28 µM and the GI50 [32] was 17.4 µM. It also gave a TGI [32] of 38.7 µM, a GI50 [33] of 2.68 µM and a TGI [33] of 13.5 µM. The GI50 [34] was 16.3 µM, the TGI [34] was 35.7 µM and the GI50 [35] was 4.99 µM. It also gave a TGI [35] of 18 µM, a GI50 [36] of 11.4 µM and a TGI [36] of 32.9 µM. For the same compound, the GI50 [37] was 21.2 µM, the TGI [37] was 69.5 µM and the GI50 [38] was 15.4 µM. For the same compound, the TGI [38] was 30.5 µM, the GI50 [39] was 15.6 µM and the TGI [39] was 37.9 µM. For the same compound, the GI50 [40] was 3.03 µM, the TGI [40] was 19.9 µM and the GI50 [41] was 3.56 µM. It also gave a TGI [41] of 12.6 µM, a GI50 [42] of 12.2 µM and a TGI [42] of 27 µM. For the same compound, the GI50 [43] was 83.8 µM, the TGI [43] was > 100 µM and the GI50 [44] was 12.5 µM. The TGI [44] was 25 µM, the GI50 [45] was 13.3 µM and the TGI [45] was 28.6 µM. It also gave a GI50 [46] of 12.1 µM, a TGI [46] of 25.3 µM and a GI50 [47] of 13.6 µM. The TGI [47] was 28.8 µM, the GI50 [48] was 66.8 µM and the TGI [48] was > 100 µM. It also gave a GI50 [49] of 11.9 µM, a TGI [49] of 26.4 µM and a GI50 [50] of 20.7 µM. For the same compound, the TGI [50] was 54 µM, the GI50 [51] was 22.6 µM and the TGI [51] was > 100 µM. It also gave a GI50 [52] of 2.46 µM, a TGI [52] of 8.72 µM and a GI50 [53] of 3.15 µM. For the same compound, the TGI [53] was 11.7 µM, the GI50 [54] was 3.22 µM and the TGI [54] was 20.6 µM. It also gave a GI50 [55] of 3.13 µM, a TGI [55] of 10.3 µM and a GI50 [56] of 14.8 µM. For the same compound, the TGI [56] was 29.9 µM, the GI50 [57] was 11 µM and the TGI [57] was 34 µM. For the same compound, the GI50 [58] was 11.5 µM, the TGI [58] was 23.9 µM and the GI50 [59] was 5.08 µM. The TGI [59] was 23.9 µM.
